Key:
MMP01 = molecular target: T1, MMP01 (Homo sapiens, UniProt P03956); assay: Thiopeptolide assay, MMP01; assay type: biochemical; settings: Table 1; read-out: IC50 MMP01
T1 construct: purchased Washington University School of Medicine, St. Louis, Mo
T1 sequence (P03956 100-469): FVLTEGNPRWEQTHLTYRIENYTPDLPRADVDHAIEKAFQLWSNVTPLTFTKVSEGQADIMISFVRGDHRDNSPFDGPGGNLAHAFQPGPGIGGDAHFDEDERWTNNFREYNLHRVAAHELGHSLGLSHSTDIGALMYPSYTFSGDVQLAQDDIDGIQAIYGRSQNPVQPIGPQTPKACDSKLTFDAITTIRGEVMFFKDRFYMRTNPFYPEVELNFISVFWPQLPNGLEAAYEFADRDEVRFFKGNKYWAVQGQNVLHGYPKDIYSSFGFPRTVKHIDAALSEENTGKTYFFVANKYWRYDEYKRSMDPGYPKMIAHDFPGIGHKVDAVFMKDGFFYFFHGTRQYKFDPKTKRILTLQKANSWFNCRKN

[1] = molecular target: gelatinase A catalytic domain (MMP02); assay: Thiopeptolide assay, gelatinase A catalytic domain (GCD, MMP02); assay type: biochemical; settings: Table 1; GCD; read-out: IC50 MMP02
MMP09 = molecular target: T2, MMP09 (Homo sapiens, UniProt P14780); assay: Thiopeptolide assay, MMP09; assay type: biochemical; settings: Table 1
T2 construct: purchased Washington University School of Medicine, St. Louis, Mo
T2 sequence (P14780 107-707 limits assumed): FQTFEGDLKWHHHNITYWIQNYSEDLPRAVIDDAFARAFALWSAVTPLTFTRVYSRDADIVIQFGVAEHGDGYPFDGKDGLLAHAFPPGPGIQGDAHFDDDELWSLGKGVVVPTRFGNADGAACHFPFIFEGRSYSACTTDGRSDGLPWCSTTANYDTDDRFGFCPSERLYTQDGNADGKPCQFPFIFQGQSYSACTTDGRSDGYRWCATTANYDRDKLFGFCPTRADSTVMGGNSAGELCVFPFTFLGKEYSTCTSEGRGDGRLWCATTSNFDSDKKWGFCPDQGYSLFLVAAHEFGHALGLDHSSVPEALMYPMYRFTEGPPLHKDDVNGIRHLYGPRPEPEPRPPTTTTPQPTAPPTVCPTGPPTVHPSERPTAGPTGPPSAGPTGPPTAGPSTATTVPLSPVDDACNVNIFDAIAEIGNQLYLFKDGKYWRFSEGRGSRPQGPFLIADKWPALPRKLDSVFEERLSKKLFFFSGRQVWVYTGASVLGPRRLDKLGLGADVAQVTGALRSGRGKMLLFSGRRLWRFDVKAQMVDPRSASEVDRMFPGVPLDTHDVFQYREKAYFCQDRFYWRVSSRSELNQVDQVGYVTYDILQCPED
Method: IC50 values were determined using a thiopeptolide substrate, Ac-Pro-Leu-Gly-thioester-Leu-Leu-Gly-OEt (Ye Q.-Z., Johnson L. L., Hupe D. J., and Baragi V., "Purification and Characterization of the Human Stromelysin Catalytic Domain Expressed in Escherichia coli," Biochemistry, 1992;31:11231-11235). MMP01, MMP07, MMP09, and MMP13 activity was assayed in a method similar to MMP02 and MMP03 (SCD and GCD). MMP01 and MMP09 can be obtained from Washington University School of Medicine, St. Louis, Mo. MMP07 can be obtained in accordance with the known procedure set forth by Ye QZ, Johnson L. L., and Baragi V., "Gene Syntheses and Expression in E. coli for PUMP, a Human Matrix Metalloproteinase" Biochem. and Biophys. Res. Comm., 1992; 186:143-149. MMP 13 can be obtained in accordance with the known procedure set forth by Freije J. M. P., et al., "Molecular Cloning and Expression of Collegenase-3, a Novel Human Matrix Metalloproteinase Produced by Breast Carcinomas" J. Bio. Chem., 1994;269:16766-6773.
Hydrolysis of the thiopeptolide substrate Ac-Pro-Leu-Gly-thioester-Leu-Leu-Gly-OEt (Bachem) is used as the primary screen to determine IC50 values for MMP inhibitors. […] The change in absorbance at 405 riM is monitored on a ThermoMax microplate reader at room temperature continuously for 20 minutes.

[2] = MMP Inhibitor Bioassay (plasma levels after gavage); assay type: in vivo; settings: rat, po, 50 mg/kg by gavage
Method: Animals are dosed by gavage with either vehicle or compound at 2, 10, or 50 mg/kg. Blood samples are collected from 3-4 animals from each dosing group at 1, 2, 4, 6, and 24 hour postdose, centrifuged, and the plasma immediately frozen at -20° C. Plasma protein is precipitated with an equal volume of acetonitrile and separated by centrifugation at room temperature. The supernate is evaporated to dryness and reconstituted to the original plasma volume with 50 mM Tris, pH 7.6. Ten-fold serial dilutions of the reconstituted plasma samples are prepared in 50 mM Tris, pH 7.6 for dose response assays using the appropriate thiopeptolide assay. The concentration of plasma which yields 50% inhibition of enzyme is determined and used to calculate the inhibitor plasma level from the known IC50 value. […] All control samples are subjected to acetonitrile precipitation and analyzed with the thiopeptolide assay.

[3] = molecular target: T3, stromelysin-1 catalytic domain (MMP03) (Homo sapiens, UniProt P08254); assay: Thiopeptolide assay, stromelysin-1 catalytic domain (SCD, MMP03); assay type: biochemical; settings: Table 1; SCD; read-out: IC50 MMP03
T3 construct: SCD (stromelysin-1 catalytic domain); made in house; host or cells: Escherichia coli
T3 sequence (P08254 100-272 limits assumed): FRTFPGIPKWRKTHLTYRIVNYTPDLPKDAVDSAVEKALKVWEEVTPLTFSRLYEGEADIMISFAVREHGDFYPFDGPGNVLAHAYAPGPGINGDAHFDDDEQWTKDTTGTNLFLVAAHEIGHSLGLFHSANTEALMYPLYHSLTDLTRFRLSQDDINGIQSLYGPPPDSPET

MMP07 = molecular target: T4, MMP07 (Homo sapiens, UniProt P09237); assay: Thiopeptolide assay, MMP07; assay type: biochemical; settings: Table 1; read-out: IC50 MMP07
T4 construct: made in house; host or cells: Escherichia coli
T4 sequence (P09237 95-267): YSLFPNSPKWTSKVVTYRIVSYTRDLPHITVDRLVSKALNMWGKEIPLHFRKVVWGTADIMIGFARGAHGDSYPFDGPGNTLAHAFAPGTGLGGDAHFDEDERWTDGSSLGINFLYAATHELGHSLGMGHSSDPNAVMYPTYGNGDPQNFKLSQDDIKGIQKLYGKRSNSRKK

MMP13 = assay: Thiopeptolide assay, MMP13; assay type: biochemical, human; settings: Table 1
Method: MMP01, MMP07, MMP09, and MMP13 activity was assayed in a method similar to MMP02 and MMP03 (SCD and GCD). MMP01 and MMP09 can be obtained from Washington University School of Medicine, St. Louis, Mo. MMP07 can be obtained in accordance with the known procedure set forth by Ye QZ, Johnson L. L., and Baragi V., "Gene Syntheses and Expression in E. coli for PUMP, a Human Matrix Metalloproteinase" Biochem. and Biophys. […] MMP 13 can be obtained in accordance with the known procedure set forth by Freije J. M. P., et al., "Molecular Cloning and Expression of Collegenase-3, a Novel Human Matrix Metalloproteinase Produced by Breast Carcinomas" J. Bio.
Hydrolysis of the thiopeptolide substrate Ac-Pro-Leu-Gly-thioester-Leu-Leu-Gly-OEt (Bachem) is used as the primary screen to determine IC50 values for MMP inhibitors. A 100 μL reaction contains 1 mM 5,5'-dithiobis(2-nitrobenzoic acid) (DTNB), 100 μM substrate, 0.1% Brij, enzyme, and inhibitor in the appropriate reaction buffer. Activated full-length enzymes are assayed at 5 nM, Stromelysin Catalytic Domain (SCD) at 10 nM, and Gelatinase A Catalytic Domain (GaCD) at 1 nM. Inhibitors are screened from 100 μM to 1 nM. Full-length enzymes are assayed in 50 mM HEPES, 10 mM CaCl2, pH 7.0; SCD in 50 mM MES, 10 mM CaCl2, pH 6.0; and GaCD in 50 mM MOPS, 10 mM CaCl2, 10 μM ZnCl2, pH 7.0.

[4] = test system: bovine nasal and pig articular cartilage; settings: Andrews et al. 1992; Ellis et al. 1994; cited from earlier work
[5] = test system: experimental allergic encephalomyelitis (EAE); settings: Gijbels, et al., J. Clin. Invest., 1994; cited from earlier work

O=C(O)[C@H](CCc1ccccc1)NS(=O)(=O)c1ccc2oc3ccccc3c2c1 [Example 1, (S)-2-(Dibenzofuran-2-sulfonylamino)-4-phenyl-butyric acid]
IC50 (MMP01): 47 µM | IC50 [1]: 270 nM | IC50 (MMP09): 67 µM | concentration at 24 h ([2]; 24 hours, read-out: plasma levels at 24 hours postdose): 29 µM | Cmax ([2]; at 1 to 4 hours, read-out: peak plasma levels): 71 µM | Tmax ([2]; read-out: time of peak plasma levels): 1 to 4 h

O=C(O)[C@H](CCc1ccccc1)NS(=O)(=O)c1ccc2c(c1)Cc1ccccc1-2 [Example 9, (S)-2-(9H-Fluorene-2-sulfonylamino)-4-phenyl-butyric acid]
IC50 (MMP01): 49.5 µM | IC50 [1]: 24 nM | IC50 [3]: 46.5 nM | IC50 (MMP07): 2550 nM | IC50 (MMP09): 100 µM | IC50 (MMP13): 330 nM

TIMP-1: TIMP-1; TIMPs are natural endogenous inhibitors of MMPs
formation of collagen fragments [4]: prevented the formation of collagen fragments

CNC(=O)[C@H](Cc1c[nH]c2ccccc12)NC(=O)[C@@H](CC(=O)NO)CC(C)C [GM6001]
effect on EAE [5]: suppressed the development or reversed the clinical expression of experimental allergic encephalomyelitis (EAE) in a dose dependent manner

— US6294674A, “Dibenzofuran sulfonamide matrix metalloproteinase inhibitors” (priority 1999, dated 2001)
